Measurements published in patent US10561638B2, “Methods for treating dependence” (Biotie Therapies, Inc., priority 2007, dated 2020).
“Also recorded” adds a separate entry of the source.

How the values were obtained:
[1] = Phase I single- and multiple-dose studies in healthy men; type: in vivo, human
[2] = test system: tissue noradrenaline and dopamine content; assay: Tissue catecholamines in beagle dogs dosed b.i.d. for 5 days; type: in vivo; details: for maximal increase in DA/NE ratio: 5 mg/kg b.i.d.; for decrease in noradrenaline / increase in dopamine: 5 mg/kg b.i.d. po
Method: Male beagle dogs (10-16 kg, Marshall Farms USA Inc, North Rose, N.Y., USA) were also used in in vivo studies. On the day of the study, dogs were weighed and randomly assigned to be orally dosed with either empty capsules (control) or the appropriate dose of nepicastat (0.05, 0.5, 1.5 or 5 mg·kg^−1; po, b.i.d.) for 5 days. At six hours following the first dose on day-5, the dogs were euthanized with pentobarbital and the tissues (cerebral cortex, renal artery, left ventricle) were rapidly harvested. The tissues were subsequently processed and analyzed for noradrenaline and dopamine.
Nepicastat was used in in vivo biochemical studies to study the effects in spontaneously hypertensive rats (SHRs) and normal beagle dogs. On the day of the study, the animals were weighed and randomly assigned to receive either placebo (vehicle) or the appropriate dose of nepicastat. Each rat was dosed orally three times, 12 h apart, beginning in the morning. At 6 h after the third dose, the rats were anesthetized with halothane, decapitated, and the tissues (cerebral cortex, mesenteric artery and left ventricle) were rapidly harvested, weighed, placed in iced 0.4 M perchloric acid, frozen in liquid nitrogen and stored at −70° C. until analysis. Tissue NE and DA concentrations were assayed by HPLC using electrochemical detection. Male beagle dogs (10-16 kg, Marshall Farms USA Inc, North Rose, N.Y.) were used in the study. On the day of the study, dogs were randomly assigned to receive either placebo (empty capsule) or the appropriate dose of nepicastat. Each dog was dosed twice a day for 4.5 days. 6 h after the first dose on day 5, the dogs were euthanized with pentobarbital and the tissues (cerebral cortex. renal artery, left ventricle) harvested, weighed, placed in iced 0.4 M perchloric acid, frozen in liquid nitrogen and stored at −70° C. until analysis. Tissue NE and DA concentrations were assayed by HPLC using electrochemical detection.

[3] = test system: tissue norepinephrine and dopamine levels; assay: Tissue catecholamines in Sprague-Dawley rats after 10 days b.i.d. dosing; type: in vivo; details: for dopamine/norepinephrine ratio vs vehicle: 2.0 and 6.2 mg/kg b.i.d., day 10, hydrochloride; for norepinephrine levels vs vehicle: 2.0 and 6.2 mg/kg
Method: Male Sprague-Dawley rats, weighing 180-200 grams, were fed an iodine deficient diet (Purina, 5891C, Lot 1478, 0.066±0.042 mg iodine/kg sample) ad libitum 14 days prior to treatment. Animals were weighed and randomly assigned to one of the following treatment groups (n=12 per group): nepicastat at 2.0 mg/kg, nepicastat at 6.2 mg/kg, Methimazole at 1 mg/kg, or vehicle at 1 ml/kg. Each group of rats was dosed orally in the evening and the following morning, approximately 12 hours apart, for 10 consecutive days.
At four hours after the second dose, on day 10, rats were anesthetized with halothane, decapitated, and the cortex, striatum, and mesenteric artery were harvested and weighed. Tissue samples were not harvested from the methimazole groups as they only served as positive controls for determination of thyroid function. The mesenteric artery, cortex, and striatum were immediately placed in 0.4 M iced perchloric acid and analyzed for norepinephrine and dopamine levels the same day using HPLC.
To statistically evaluate changes in T3 and T4 levels, a change from baseline was calculated from the day −3 time point. A non-parametric two-way within subject analysis of variance (ANOVA) was conducted. Also a one-way ANOVA was performed to detect if a significant difference from control occurred. Pairwise analyses between controls and each treatment group were carried out using Fisher's LSD strategy to control the experiment-wise error rate. For statistical analysis of catecholamine levels, a one-way ANOVA with factor DOSE was performed. Pairwise analyses between treated and controls at each dose were carried out using Fisher's LSD strategy to control the experiment-wise error rate.

[4] = test system: blood pressure responses to norepinephrine, isoproterenol and acetylcholine; assay: Responses to autonomic agents in anesthetized, instrumented dogs; type: in vivo, beagle dogs; details: single intraduodenal dose of 60 mg/kg
Method: Beagle dogs were administered single intraduodenal doses of 0 (vehicle) or 60 mg/kg of nepicastat through an intraduodenal cannula. The vehicle-control group consisted of 1 male and 1 female, and the nepicastat-treatment group consisted of 2 males and 2 females. Each animal was surgically instrumented while anesthetized with isoflurane gas. Before dosing with test formulation, the average blood pressure responses to intravenous doses of autonomic agents, norepinephrine (3 μg/kg), isoproterenol (0.3 μg/kg), and acetylcholine (10 μg/kg), were evaluated. A single bolus dose of test formulation was then administered to each animal and the blood pressure responses to the autonomic agents were evaluated approximately 1, 2, and 3 hours after dosing. At the completion of the experiment, each dog was euthanatized and removed from the study. […]
Systolic, diastolic, and mean aortic blood pressures were evaluated just before administration (baseline) and at the time of peak response to each agent (maximum change from baseline). Systolic, diastolic, and mean aortic blood pressures, and blood pH, PCO2, and PO2 were evaluated before dosing and approximately 50, 110, and 170 minutes after dosing with test formulation. […]

Q: What does the source list for `Cl.NCc1c[nH]c(=S)n1[C@H]1CCc2c(F)cc(F)cc2C1` [nepicastat, (S)-5-Aminomethyl-1-(5,7-difluoro-1,2,3,4-tetrahydronaphth-2-yl)-2,3-dihydro-2-thioxo-1H-imidazole hydrochloride]?
A: subjects who developed a rash ([1]; 200 mg for 8 days or longer): Five of the 6 subjects; tolerability, multiple-dose Phase I study ([1]; 5 and 40 mg, healthy men): generally well tolerated; effect on mood, sleep, cognition ([1]; 5 or 40 mg): no significant impairment of mood, sleep, or cognition; tolerability, single-dose Phase I studies ([1]; 5 to 800 mg, healthy men): generally well tolerated; cardiac adverse event in one subject ([1]; after 6 days of dosing with 200 mg): atrial arrhythmias and intermittent right bundle branch block; maximal increase in DA/NE ratio ([2]; cerebral cortex): 80 fold; decrease in noradrenaline ([2]; cerebral cortex): 96%; increase in dopamine ([2]; cerebral cortex): 166%; maximal increase in DA/NE ratio ([2]; left ventricle): 151 fold; decrease in noradrenaline ([2]; left ventricle): 91%; increase in dopamine ([2]; left ventricle): 700%; maximal increase in DA/NE ratio ([2]; renal artery): 95 fold; decrease in noradrenaline ([2]; renal artery): 88%; increase in dopamine ([2]; renal artery): 627%; doses at which catecholamine changes attained significance (p<0.05) ([2]; renal artery, left ventricle, cerebral cortex): ≥ 0.1 mg/kg/day; dopamine levels vs vehicle ([3]; all three tissues, 2.0 or 6.2 mg/kg): not significantly (p>0.05) different; dopamine/norepinephrine ratio vs vehicle ([3]; cortex (and striatum)): not in the cortex; also recorded: not significantly (p>0.05) different; norepinephrine levels vs vehicle ([3]; cortex): not significantly (p>0.05) different; norepinephrine levels vs vehicle ([3]; mesenteric artery): significantly (p<0.05) lower; dopamine/norepinephrine ratio vs vehicle ([3]; mesenteric artery): significantly raised; also recorded: significantly (p<0.05) higher; norepinephrine levels vs vehicle ([3]; striatum): marginally (p<0.10) lower; predose vs postdose blood pressure responses to autonomic agents [4]: No treatment-related differences
